From patent US20100041691A1, “PHARMACEUTICAL COMPOSITIONS COMPRISING COMBINATIONS OF AN AMPA/KAINATE ANTAGONISTIC COMPOUND AND AN INHIBITOR OF A MULTIDRUG RESISTANCE PROTEIN” (NeuroSearch A/S, priority 2006, published 2010)
Where two headings read alike, the source gives them in different places.

Legend:
[1] = system: tonic seizures induced by 26 mA corneal stimulation; details: Compound A i.v. 60 minutes before electroshock, female NMRI mice
Description: After administration of vehicle or test substance female NMRI mice were stimulated with 26 mA for 0.3 seconds, using corneal stimulation (Rodent Shocker, Hugo Sachs Electronic, Germany). In presence of tonic seizure the mice was labeled 0% protection and if no tonic seizure was detected the mice was labeled 100% protection. Results were plotted as a function of logarithmic dose and fitted to a sigmoid-dose response (with variable slope (GraphPad Prism, ver. 4) and used to estimate the dose that would give a 50% protection from seizures (N=6/group).
Vehicle (5% chremophor) was dosed p.o.

[2] = 10 mg/kg i.v. with Verapamil I.C.V. versus Compound A only; mice; 5-60 minutes
Description: 16 NMRI-mice were allocated into 4 groups. The animals were anesthetised in 1.5% Isuflurane and 20% O2. […] At different time point (5 minutes, 15 minutes, 30 minutes and 60 minutes) after dosing the animals were killed by decapitation and blood and brain were collected. The EDTA stabilised blood was centrifugation at 4000 rpm for 20 minutes at 4° C. Plasma and brain samples were stored at −20° C. pending analysis.
Plasma and brain samples were analysed using LC-MS/MS (Quattro Ultimo Platinum with Acquility solvent and sample manager, Waters) in positive electrospray 10 ionisation and multiple reaction monitoring mode. The analytical column was a UPLC Acquility BEH C18 (1.7 μm) 1.0×50 mm (Waters) with gradient elution at a 0.13 ml/min flow rate. The initial mobile phase was 20% methanol/80% formic acid changed to 90% methanol/10% formic acid over a time period of 1.7 min.
Samples were centrifuged for 25 minutes at 5° C., 14000 rpm and 3 μl of the supernatants were injected onto the LC-column.
Brain tissue (0.1 g) was weighed out on top of a tube containing 0.8 ml bead (1.0 mm Zirconia from BioSpec Products). […]
Samples were quantified based on standard curves (linear, 1/×weighting), prepared in plasma and brain tissue respectively.

P-gp = details: inhibition of P-gp in phenytoin-treated chronic epileptic rats; cited from earlier work

Row | Structure (SMILES) | ED50, protection against tonic seizures ([1]; pretreatment with Tariquidar 24 mg/kg p.o. 120 minutes before) [mg/kg] | ED50, protection against tonic seizures ([1]; with vehicle (5% chremophor p.o.)) [mg/kg] | brain exposure of Compound A [2] | seizure control (P-gp)
1 | CN1CCc2c(-c3ccc(S(=O)(=O)N(C)C)cc3)cc3c(c2C1)NC(=O)C3=NOC(CCO)C(=O)O (stereo not shown) [Compound A, 8-Methyl-5-(4-(N,N-dimethyl-sulfamoyl)phenyl)-6,7,8,9-tetrahydro-1H-pyrrolo[3,2h]-isoqinoline-2,3-dione-3-O-(4-hydroxybutyric acid-2-yl)oxime] | 24 | 31.5 | increase in brain exposure | –
2 | COc1cc2c(cc1OC)CN(CCc1ccc(NC(=O)c3cc(OC)c(OC)cc3NC(=O)c3cnc4ccccc4c3)cc1)CC2 [Tariquidar] | – | – | – | improves seizure control
